According to US20150175584A1, “Quinazolin-THF-amines as PDE1 inhibitors” (H. LUNDBECK A/S, priority 2013, published 2015):

Columns and labels:
Assay type in all cases: biochemical
Settings in all cases: 15 nM tritium labelled cAMP, 1 h at room temperature, SPA beads
[1] = molecular target: PDE1A (Homo sapiens, UniProt P54750); experiment: PDE1 Inhibition Assay, PDE1A (SPA)
Protocol: (§1) PDE1A, PDE1B and PDE1C assays were performed as follows: the assays was performed in 60 μL samples containing a fixed amount of the PDE1 enzym1 (sufficient to convert 20-25% of the cyclic nucleotide substrate), a buffer (50 mM HEPES pH 7.6; 10 mM MgCl2; 0.02% Tween20), 0.1 mg/ml BSA, 15 nM tritium labelled cAMP and varying amounts of inhibitors. Reactions were initiated by addition of the cyclic nucleotide substrate, and reactions were allowed to proceed for 1 h at room temperature before being terminated through mixing with 20 μL (0.2 mg) yttrium silicate SPA beads (PerkinElmer). The beads were allowed to settle for 1 h in the dark before the plates were counted in a Wallac 1450 Microbeta counter. The measured signals were converted to activity relative to an uninhibited control (100%) and IC50 values were calculated using XIFit (model 205, IDBS).

[2] = molecular target: PDE1B (Homo sapiens, UniProt Q01064); experiment: PDE1 Inhibition Assay, PDE1B (SPA)
PDE1B, sequence (Q01064 whole entry): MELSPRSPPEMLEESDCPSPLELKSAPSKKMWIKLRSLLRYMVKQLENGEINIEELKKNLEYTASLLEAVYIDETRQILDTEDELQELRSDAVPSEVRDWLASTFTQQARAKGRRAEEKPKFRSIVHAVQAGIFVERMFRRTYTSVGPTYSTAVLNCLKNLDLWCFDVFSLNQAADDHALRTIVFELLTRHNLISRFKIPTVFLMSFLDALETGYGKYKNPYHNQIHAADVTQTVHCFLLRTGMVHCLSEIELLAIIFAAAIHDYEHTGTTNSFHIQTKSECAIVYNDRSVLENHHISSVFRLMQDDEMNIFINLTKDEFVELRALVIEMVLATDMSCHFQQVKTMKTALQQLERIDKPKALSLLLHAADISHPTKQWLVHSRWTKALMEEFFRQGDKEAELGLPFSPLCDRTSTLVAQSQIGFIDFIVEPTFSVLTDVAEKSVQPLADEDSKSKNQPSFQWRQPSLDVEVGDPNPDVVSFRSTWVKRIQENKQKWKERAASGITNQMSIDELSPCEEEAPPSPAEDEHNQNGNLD
Protocol: as §1

[3] = molecular target: PDE1C (Homo sapiens, UniProt Q14123); experiment: PDE1 Inhibition Assay, PDE1C (SPA)
PDE1C, sequence (Q14123 whole entry): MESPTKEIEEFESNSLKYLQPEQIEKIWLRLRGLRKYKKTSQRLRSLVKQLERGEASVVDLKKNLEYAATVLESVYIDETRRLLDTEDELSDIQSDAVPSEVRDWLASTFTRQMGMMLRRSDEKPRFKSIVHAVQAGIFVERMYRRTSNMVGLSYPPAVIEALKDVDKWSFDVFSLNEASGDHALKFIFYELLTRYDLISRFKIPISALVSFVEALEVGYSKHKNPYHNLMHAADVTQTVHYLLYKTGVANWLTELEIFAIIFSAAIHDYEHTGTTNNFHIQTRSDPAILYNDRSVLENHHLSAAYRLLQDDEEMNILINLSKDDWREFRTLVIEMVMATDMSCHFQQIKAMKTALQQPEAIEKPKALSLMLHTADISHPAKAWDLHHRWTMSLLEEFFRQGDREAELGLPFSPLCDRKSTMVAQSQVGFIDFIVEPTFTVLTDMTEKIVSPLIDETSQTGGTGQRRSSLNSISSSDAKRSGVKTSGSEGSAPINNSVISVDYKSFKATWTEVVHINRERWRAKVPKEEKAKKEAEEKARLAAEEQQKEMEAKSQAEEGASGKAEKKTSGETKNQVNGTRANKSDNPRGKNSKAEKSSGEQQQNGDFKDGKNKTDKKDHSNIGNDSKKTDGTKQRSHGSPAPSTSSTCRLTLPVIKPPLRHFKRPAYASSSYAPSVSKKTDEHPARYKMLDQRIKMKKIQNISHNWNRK
Protocol: as §1

PDE1A, sequence (P54750 whole entry): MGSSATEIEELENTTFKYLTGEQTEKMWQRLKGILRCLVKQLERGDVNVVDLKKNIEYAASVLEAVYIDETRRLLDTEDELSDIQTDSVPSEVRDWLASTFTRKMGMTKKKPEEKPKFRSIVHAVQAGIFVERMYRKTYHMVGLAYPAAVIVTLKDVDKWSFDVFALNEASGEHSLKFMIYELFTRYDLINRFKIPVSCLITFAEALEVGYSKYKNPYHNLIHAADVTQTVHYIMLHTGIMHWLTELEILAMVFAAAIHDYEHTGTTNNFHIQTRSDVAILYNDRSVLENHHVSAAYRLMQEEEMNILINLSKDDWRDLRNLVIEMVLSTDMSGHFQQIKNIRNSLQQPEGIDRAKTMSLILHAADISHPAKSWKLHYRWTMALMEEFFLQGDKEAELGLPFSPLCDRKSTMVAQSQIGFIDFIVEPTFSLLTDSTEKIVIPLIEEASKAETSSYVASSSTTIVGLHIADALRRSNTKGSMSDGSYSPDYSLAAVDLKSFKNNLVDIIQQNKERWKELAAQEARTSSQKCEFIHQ

SMILES | IC50 [1] [µM] | IC50 [2] [µM] | IC50 [3] [µM]
COc1ccc2c(NC3(C)CCOC3C)ncnc2c1OC (mixture of isomers) [Compound 5, N-(2,3-dimethyltetrahydrofuran-3-yl)-7,8-dimethoxyquinazolin-4-amine] | 0.13 | 0.033 | 0.13
COc1ccc2c(NC3CCOC3)ncnc2c1OC (racemic) [Compound 1, 7,8-Dimethoxy-N-(tetrahydrofuran-3-yl)quinazolin-4-amine] | 1.2 | 0.23 | 0.59
COc1ccc2c(N[C@@H]3COC[C@H]3OC)ncnc2c1OC (relative stereo) [Compound 17, Trans-7,8-dimethoxy-N-(4-methoxytetrahydrofuran-3-yl)quinazolin-4-amine] | 2.2 | 0.52 | 1.3
COc1ccc2c(N[C@@H]3COC[C@H]3O)ncnc2c1OC (relative stereo) [Compound 18, trans-4-((7,8-dimethoxyquinazolin-4-yl)amino)tetrahydrofuran-3-ol] | 2.3 | 1.3 | 2.6
COc1ccc2c(N[C@@H]3COC[C@@H]3O)ncnc2c1OC (relative stereo) [Compound 19, cis-4-((7,8-dimethoxyquinazolin-4-yl)amino)tetrahydrofuran-3-ol] | 4.6 | 0.84 | –
COc1ccc2c(NC3CCOC3)ncnc2c1OC (single isomer, unassigned) [1 Stereoisomer 1] | 0.28 | 0.054 | 0.28
COc1ccc2c(NC3CCOC3)ncnc2c1OC (single isomer, unassigned) [1 Stereoisomer 2] | 1.9 | 0.6 | 1.2
COc1ccc2c(NC3CCOC3C)ncnc2c1OC (single isomer, unassigned) [3 Stereoisomer 1] | 2.5 | 1.2 | 3
COc1ccc2c(NC3CCOC3C)ncnc2c1OC (single isomer, unassigned) [3 Stereoisomer 2] | 0.49 | 0.094 | 0.31
COc1ccc2c(NC3CCOC3C)ncnc2c1OC (single isomer, unassigned) [3 Stereoisomer 3] | 0.89 | 0.1 | 0.39
COc1ccc2c(NC3CCOC3C)ncnc2c1OC (single isomer, unassigned) [3 Stereoisomer 4] | 0.58 | 0.12 | 0.27
COc1ccc2c(N(C)[C@@H]3CCOC3)ncnc2c1OC (single isomer, unassigned) [4 Stereoisomer 1] | 0.37 | 0.08 | 0.14
COc1ccc2c(N(C)[C@H]3CCOC3)ncnc2c1OC (single isomer, unassigned) [4 Stereoisomer 2] | 1.4 | 0.08 | 0.14
COc1ccc2c(NC3(C)CCOC3C)ncnc2c1OC (single isomer, unassigned) [5 Stereoisomer 1] | 0.59 | 0.3 | 1.1
COc1ccc2c(NC3(C)CCOC3C)ncnc2c1OC (single isomer, unassigned) [5 Stereoisomer 2] | 0.24 | 0.087 | 0.4
COc1ccc2c(NC3(C)CCOC3C)ncnc2c1OC (single isomer, unassigned) [5 Stereoisomer 3] | 0.033 | 0.006 | 0.067
COc1ccc2c(NC3(C)CCOC3C)ncnc2c1OC (single isomer, unassigned) [5 Stereoisomer 4] | 0.077 | 0.015 | 0.14
COc1ccc2c(NC3(C)CCOC3)ncnc2c1OC (single isomer, unassigned) [6 Stereoisomer 1] | 0.29 | 0.11 | 0.4
COc1ccc2c(NC3(C)CCOC3)ncnc2c1OC (single isomer, unassigned) [6 Stereoisomer 2] | 0.14 | 0.037 | 0.11
COc1ccc2c(N(C)C3(C)CCOC3C)ncnc2c1OC (single isomer, unassigned) [20 Stereoisomer 1] | 0.019 | 0.005 | 0.033
COc1ccc2c(N(C)C3(C)CCOC3C)ncnc2c1OC (single isomer, unassigned) [20 Stereoisomer 2] | 0.026 | 0.004 | 0.027

SMILES | IC50 [1] [µM] | IC50 [2] [µM] | IC50 [3] [µM]
COc1ccc2c(N(C)C3(C)CCOC3C)ncnc2c1OC (single isomer, unassigned) [20 Stereoisomer 3] | 0.44 | 0.19 | 0.89
COc1ccc2c(N(C)C3(C)CCOC3C)ncnc2c1OC (single isomer, unassigned) [20 Stereoisomer 4] | 0.12 | 0.039 | 0.17
COc1ccc2c(NC3CCOC3(C)C)ncnc2c1OC (single isomer, unassigned) [21 Stereoisomer 1] | 1.5 | 0.78 | 2.8
COc1ccc2c(NC3CCOC3(C)C)ncnc2c1OC (single isomer, unassigned) [21 Stereoisomer 2] | 1.3 | 0.26 | 1.6
COc1ccc2c(N(C)C3CCOC3C)ncnc2c1OC (single isomer, unassigned) [22 Stereoisomer 1] | 0.11 | 0.028 | 0.079
COc1ccc2c(N(C)C3CCOC3C)ncnc2c1OC (single isomer, unassigned) [22 Stereoisomer 2] | 0.21 | 0.035 | 0.055
COc1ccc2c(N(C)C3CCOC3C)ncnc2c1OC (single isomer, unassigned) [22 Stereoisomer 3] | 1.1 | 0.43 | 1.5
COc1ccc2c(N(C)C3CCOC3C)ncnc2c1OC (single isomer, unassigned) [22 Stereoisomer 4] | 1.5 | 1.1 | 0.78
COc1ccc2c(N(C)C3(C)CCOC3)ncnc2c1OC (single isomer, unassigned) [23 Stereoisomer 1] | 0.24 | 0.07 | 0.5
COc1ccc2c(N(C)C3(C)CCOC3)ncnc2c1OC (single isomer, unassigned) [23 Stereoisomer 2] | 0.16 | 0.055 | 0.17
COc1ccc2c(N(C)C3CCOC3)ncnc2c1OC (stereo not shown) [Compound 4, 7,8-Dimethoxy-N-methyl-N-(tetrahydrofuran-3-yl)quinazolin-4-amine] | 0.36 | 0.084 | 0.14
COc1ccc2c(NC3(C)CCOC3)ncnc2c1OC (stereo not shown) [Compound 6, 7,8-dimethoxy-N-(3-methyltetrahydrofuran-3-yl)quinazolin-4-amine] | 0.15 | 0.062 | 0.16
CCN(c1ncnc2c(OC)c(OC)ccc12)[C@H]1CCOC1 [Compound 8, (S)-N-ethyl-7,8-dimethoxy-N-(tetrahydrofuran-3-yl)quinazolin-4-amine] | 0.48 | 0.25 | 0.51
CCCN(c1ncnc2c(OC)c(OC)ccc12)[C@H]1CCOC1 [Compound 9, (S)-7,8-dimethoxy-N-propyl-N-(tetrahydrofuran-3-yl)quinazolin-4-amine] | 0.28 | 0.18 | 0.54
COc1ccc2c(N(Cc3ccccc3)[C@H]3CCOC3)ncnc2c1OC [Compound 10, (S)-N-benzyl-7,8-dimethoxy-N-(tetrahydrofuran-3-yl)quinazolin-4-amine] | 0.82 | 0.36 | 1.4
COc1ccc2c(N(CC3CC3)[C@H]3CCOC3)ncnc2c1OC [Compound 11, (S)-N-(cyclopropylmethyl)-7,8-dimethoxy-N-(tetrahydrofuran-3-yl)quinazolin-4-amine] | 0.85 | 0.42 | 1.6
CCN(c1ncnc2c(OC)c(OC)ccc12)[C@@H]1CCOC1 [Compound 13, (R)—N-ethyl-7,8-dimethoxy-N-(tetrahydrofuran-3-yl)quinazolin-4-amine] | 1.2 | 0.6 | 1.5
CCCN(c1ncnc2c(OC)c(OC)ccc12)[C@@H]1CCOC1 [Compound 14, (R)-7,8-dimethoxy-N-propyl-N-(tetrahydrofuran-3-yl)quinazolin-4-amine] | 0.27 | 0.18 | 0.36
COc1ccc2c(N(CC3CC3)[C@@H]3CCOC3)ncnc2c1OC [Compound 15, (R)—N-(cyclopropylmethyl)-7,8-dimethoxy-N-(tetrahydrofuran-3-yl)quinazolin-4-amine] | 2.5 | 0.82 | 2.1
COc1ccc2c(N(Cc3ccccc3)[C@@H]3CCOC3)ncnc2c1OC [Compound 16, (R)—N-benzyl-7,8-dimethoxy-N-(tetrahydrofuran-3-yl)quinazolin-4-amine] | 1.2 | 0.41 | 1.6
CCC1(Nc2ncnc3c(OC)c(OC)ccc23)CCOC1 (stereo not shown) [Compound 24, N-(3-Ethyltetrahydrofuran-3-yl)-7,8-dimethoxyquinazolin-4-amine] | – | 0.063 | 0.22
